Source: patent US5300629A, “Bactericidal and/or bacteriostatic peptides isolated from hemolymph of honeybees” (Plant Genetic Systems, N.V., priority 1987, dated 1994)
≈ marks a conversion by molar mass, not a printed value. Where a SMILES comes first, the peptide text is derived from it.

What was measured:
Type in all cases: cell-based
E. coli NCTC 9001 [1] = conditions: E. coli NCTC 9001; 4 μg/well
Procedure: Whole lymph or purified components, resuspended in PBS to a final volume equal to the starting material (heated lymph), was applied in 3 mm wells on agar plates seeded with the test organisms. Antibacterial activity was determined by measuring the growth-inhibition zones (in mm).
Test conditions: agar inhibition zone obtained with 10 namomole apidaecin, resuspended in 20 μl H2 O/well.

[2] = test system: Pseudomonas syringae pv. tomato NCPPB 1106; assay: Inhibition zone assay; conditions: * synthetic ApidIa and heattreated immune lymph instead of Bee6 and native immune lymph
[3] = test system: Agrobactierium tumefaciens DSM 3129; assay: Minimal inhibitory concentration in liquid culture; conditions: 200 μl rich medium, 10^4 log-phase bacteria
[4] = test system: Pseudomonas syringae pv. maculicola NCPPB 1776; assay: Inhibition zone assay; conditions: * synthetic ApidIa and heattreated immune lymph instead of Bee6 and native immune lymph
[5] = test system: Erwinia carotovora var carotovora NCPPB 312; assay: Minimal inhibitory concentration in liquid culture; conditions: 200 μl rich medium, 10^4 log-phase bacteria
[6] = test system: Pseudomonas syringae pv. tabaci NCPPB 1237; assay: Minimal inhibitory concentration in liquid culture; conditions: 200 μl rich medium, 10^4 log-phase bacteria
[7] = test system: Pseudomonas solanacearum ATCC 11696; conditions: 200 μl rich medium, 10^4 log-phase bacteria
[8] = test system: Pseudomonas solanacearum ATCC 11696; parameters: key: --: "-" means that no inhibition has been found; conditions: * synthetic ApidIa and heattreated immune lymph instead of Bee6 and native immune lymph
E. coli NCTC 9001 [9] = assay: Bactericidal activity, method not stated; conditions: lyophilized apidaecins resuspended in PBS
[10] = test system: Xanthomonas campestris pv. campestris A 902; assay: Inhibition zone assay; parameters: key: --: "-" means that no inhibition has been found; conditions: * synthetic ApidIa and heattreated immune lymph instead of Bee6 and native immune lymph
[11] = test system: protoplasts derived from Lactobacillus sp; assay: Protoplast regeneration, agar diffusion assay; conditions: Lactobacillus protoplasts on RM MRS medium, 4 μg/well
Procedure: Protoplasts were made using lysozyme concentrations ranging between 0 and 5 mg/ml and then incubated for 1 hour in the presence of Apid Ia (concentrations ranging between 0-10 μg/ml) . Cells were pelleted, resuspended and plated out on RM MRS. To estimate the ratio of protoplasts/normal cells, controls were plated out on MRS without the stabilizing sucrose. This prevented the regenerating of the protoplasts and enabled the deduction of the number of normal cells. To evaluate the regeneration capability of the said protoplasts in the presence of Apid Ia an agar diffusion assay was performed : the protoplasts were applied on RM MRS medium, wells were made and filled up with an apidaecin solution (4 μg/well).

[12] = test system: Rhizobium meliloti ZB 314; assay: Minimal inhibitory concentration in liquid culture; conditions: 200 μl rich medium, 10^4 log-phase bacteria
Shigella flexneri CP 87 = assay: Minimal inhibitory concentration in liquid culture; conditions: 200 μl rich medium, 10^4 log-phase bacteria
Procedure: (§1) In addition the exact concentration was determined precisely by amino-acid analysis and an equal sample of natural Bee 6b was prepared, allowing to compare the bactericidal activity of both natural and synthetic apidaecins by means of growth inhibition assays in liquid cultures (see mat & Meth.). The minimal inhibitory concentrations (μg/ml) were determined in liquid culture : 200 μl of a rich medium (trypticase soy broth or nutrient broth) was inoculated with 10^4 log-phase bacteria. Peptide concentrations ranged between 0 and 200 μg/ml. The values express μg/ml; when no inhibition was noticed the maximal values are given (+200 μg/ml or +50 μg/ml). All peptides were chemically synthesized, except for bee 6b which is purified from bee lymph.

[13] = test system: Xanthomonas campestris pv. vesicatoria LMG 905; assay: Minimal inhibitory concentration in liquid culture; conditions: 200 μl rich medium, 10^4 log-phase bacteria, + = no inhibition at maximal value
Procedure: as §1

[14] = test system: Corynebacterium michiganense pv. michiganense NCPPB 1573; assay: Minimal inhibitory concentration in liquid culture; conditions: 200 μl rich medium, 10^4 log-phase bacteria, + = no inhibition at maximal value
Procedure: as §1

[15] = test system: Corynebacterium insidiosum NCPPB 1109; assay: Minimal inhibitory concentration in liquid culture; conditions: 200 μl rich medium, 10^4 log-phase bacteria
Procedure: as §1

[16] = test system: Escherichia coli NCTC 9001; assay: Minimal inhibitory concentration in liquid culture; conditions: 200 μl rich medium, 10^4 log-phase bacteria
[17] = test system: Citrobacter freundii ATCC 8090; assay: Minimal inhibitory concentration in liquid culture; conditions: 200 μl rich medium, 10^4 log-phase bacteria
[18] = test system: Erwinia carotovora var atroseptica LMG 2385; assay: Minimal inhibitory concentration in liquid culture; conditions: 200 μl rich medium, 10^4 log-phase bacteria
[19] = test system: Xanthomonas campestris pv. campestris A 902; assay: Minimal inhibitory concentration in liquid culture; conditions: 200 μl rich medium, 10^4 log-phase bacteria, + = no inhibition at maximal value
[20] = test system: Salmonella typhimurium ATCC 23565; assay: Minimal inhibitory concentration in liquid culture; conditions: 200 μl rich medium, 10^4 log-phase bacteria
[21] = test system: Pseudomonas syringae pv. tomato NCPPB 1106; assay: Minimal inhibitory concentration in liquid culture; conditions: 200 μl rich medium, 10^4 log-phase bacteria
Salmonella Newport CD 94 = assay: Minimal inhibitory concentration in liquid culture; conditions: 200 μl rich medium, 10^4 log-phase bacteria
[22] = test system: Bacillus megaterium QB 1551; assay: Minimal inhibitory concentration in liquid culture; conditions: 200 μl rich medium, 10^4 log-phase bacteria, + = no inhibition at maximal value
[23] = test system: Pseudomonas syringae pv. tabaci NCPPB 1237; assay: Inhibition zone assay; conditions: * synthetic ApidIa and heattreated immune lymph instead of Bee6 and native immune lymph
[24] = test system: Pseudomonas syringae pv. maculicola NCPPB 1776; assay: Minimal inhibitory concentration in liquid culture; conditions: 200 μl rich medium, 10^4 log-phase bacteria
[25] = test system: Erwinia salicis NCPPB 2530; assay: Minimal inhibitory concentration in liquid culture; conditions: 200 μl rich medium, 10^4 log-phase bacteria
[26] = test system: Yersinia enterocolitica PGS C-1106; assay: Inhibition zone assay; conditions: * synthetic ApidIa and heattreated immune lymph instead of Bee6 and native immune lymph

Q: Which results are given for `CC[C@H](C)[C@H](NC(=O)[C@H](CCCNC(=N)N)NC(=O)[C@@H]1CCCN1C(=O)[C@H](Cc1c[nH]cn1)NC(=O)[C@@H]1CCCN1C(=O)[C@@H]1CCCN1C(=O)[C@H](CCCNC(=N)N)NC(=O)[C@@H]1CCCN1C(=O)[C@H](CCC(N)=O)NC(=O)[C@@H]1CCCN1C(=O)[C@@H](NC(=O)[C@H](Cc1ccc(O)cc1)NC(=O)[C@@H](NC(=O)[C@@H]1CCCN1C(=O)[C@H](CCCNC(=N)N)NC(=O)[C@H](CC(N)=O)NC(=O)[C@H](CC(N)=O)NC(=O)CN)C(C)C)[C@@H](C)CC)C(=O)O` [Apid Ia] (H-GNNRPVYIPQPRPPHPRI-OH)?
A: inhibition zone, positive control of the protoplast test (E. coli NCTC 9001 [1]): clear inhibition zone; diameter of growth-inhibition zone [2]: 9 mm; minimal inhibitory concentration [3]: 0.2 µg/mL (≈ 0.0949 µM); diameter of growth-inhibition zone [4]: 8 mm; minimal inhibitory concentration [5]: 1 µg/mL (≈ 0.474 µM); minimal inhibitory concentration [6]: 0.5 µg/mL (≈ 0.237 µM); minimal inhibitory concentration [7]: 25 µg/mL (≈ 11.9 µM); diameter of growth-inhibition zone [8]: --; bactericidal activity (E. coli NCTC 9001 [9]): possessed a bactericidal activity; diameter of growth-inhibition zone [10]: --; inhibition zone, regeneration of protoplasts [11]: No inhibition zone was noticed; minimal inhibitory concentration [12]: 0.1 µg/mL (≈ 0.0474 µM); minimal inhibitory concentration (Shigella flexneri CP 87): 0.1 µg/mL (≈ 0.0474 µM); minimal inhibitory concentration [13]: > 50 µg/mL; minimal inhibitory concentration [14]: > 50 µg/mL; minimal inhibitory concentration [15]: 50 µg/mL (≈ 23.7 µM); minimal inhibitory concentration [16]: 0.1 µg/mL (≈ 0.0474 µM); minimal inhibitory concentration [17]: 0.15 µg/mL (≈ 0.0711 µM); minimal inhibitory concentration [18]: 1 µg/mL (≈ 0.474 µM); minimal inhibitory concentration [19]: > 50 µg/mL; minimal inhibitory concentration [20]: 0.1 µg/mL (≈ 0.0474 µM); minimal inhibitory concentration [21]: 0.2 µg/mL (≈ 0.0949 µM); minimal inhibitory concentration (Salmonella Newport CD 94): 0.2 µg/mL (≈ 0.0949 µM); minimal inhibitory concentration [22]: 150 µg/mL; diameter of growth-inhibition zone [23]: 7 mm; minimal inhibitory concentration [24]: 0.5 µg/mL (≈ 0.237 µM); minimal inhibitory concentration [25]: 0.02 µg/mL (≈ 0.00949 µM); diameter of growth-inhibition zone [26]: 9 mm
